Tested on: cells
Test: Cell cycle analysis (G2/M arrest)
Format: cell-based
Settings: single substances; no data given

N=C(N)c1ccc(OCCCCCOc2ccc(C(=N)N)cc2)cc1 [pentamidine]
effect on the cell cycle: maintain cells in the G2/M cell cycle

Reference: US8110583B2, “Tetrahydroquinoline derivatives” (Merck Patent GmbH, priority 2005, dated 2012)
